Test results from EP1247803A2, “Indolinone compounds suitable for modulation of protein kinases” (Sugen, Inc., priority 1996, dated 1998).

How the values were obtained:
FLK-1 receptor = biological target: T1, FLK-1 receptor (Mus musculus, UniProt P35918); test: FLK-1 ELISA (kinase activity of the FLK-1 receptor in FLK-1/NIH3T3 cells, VEGF stimulated); format: cell-based; design: concentration or dose not given beside the values
T1 construct: expressed in transfected cells; host or cells: NIH3T3 C7#3
T1 sequence (P35918 20-1345): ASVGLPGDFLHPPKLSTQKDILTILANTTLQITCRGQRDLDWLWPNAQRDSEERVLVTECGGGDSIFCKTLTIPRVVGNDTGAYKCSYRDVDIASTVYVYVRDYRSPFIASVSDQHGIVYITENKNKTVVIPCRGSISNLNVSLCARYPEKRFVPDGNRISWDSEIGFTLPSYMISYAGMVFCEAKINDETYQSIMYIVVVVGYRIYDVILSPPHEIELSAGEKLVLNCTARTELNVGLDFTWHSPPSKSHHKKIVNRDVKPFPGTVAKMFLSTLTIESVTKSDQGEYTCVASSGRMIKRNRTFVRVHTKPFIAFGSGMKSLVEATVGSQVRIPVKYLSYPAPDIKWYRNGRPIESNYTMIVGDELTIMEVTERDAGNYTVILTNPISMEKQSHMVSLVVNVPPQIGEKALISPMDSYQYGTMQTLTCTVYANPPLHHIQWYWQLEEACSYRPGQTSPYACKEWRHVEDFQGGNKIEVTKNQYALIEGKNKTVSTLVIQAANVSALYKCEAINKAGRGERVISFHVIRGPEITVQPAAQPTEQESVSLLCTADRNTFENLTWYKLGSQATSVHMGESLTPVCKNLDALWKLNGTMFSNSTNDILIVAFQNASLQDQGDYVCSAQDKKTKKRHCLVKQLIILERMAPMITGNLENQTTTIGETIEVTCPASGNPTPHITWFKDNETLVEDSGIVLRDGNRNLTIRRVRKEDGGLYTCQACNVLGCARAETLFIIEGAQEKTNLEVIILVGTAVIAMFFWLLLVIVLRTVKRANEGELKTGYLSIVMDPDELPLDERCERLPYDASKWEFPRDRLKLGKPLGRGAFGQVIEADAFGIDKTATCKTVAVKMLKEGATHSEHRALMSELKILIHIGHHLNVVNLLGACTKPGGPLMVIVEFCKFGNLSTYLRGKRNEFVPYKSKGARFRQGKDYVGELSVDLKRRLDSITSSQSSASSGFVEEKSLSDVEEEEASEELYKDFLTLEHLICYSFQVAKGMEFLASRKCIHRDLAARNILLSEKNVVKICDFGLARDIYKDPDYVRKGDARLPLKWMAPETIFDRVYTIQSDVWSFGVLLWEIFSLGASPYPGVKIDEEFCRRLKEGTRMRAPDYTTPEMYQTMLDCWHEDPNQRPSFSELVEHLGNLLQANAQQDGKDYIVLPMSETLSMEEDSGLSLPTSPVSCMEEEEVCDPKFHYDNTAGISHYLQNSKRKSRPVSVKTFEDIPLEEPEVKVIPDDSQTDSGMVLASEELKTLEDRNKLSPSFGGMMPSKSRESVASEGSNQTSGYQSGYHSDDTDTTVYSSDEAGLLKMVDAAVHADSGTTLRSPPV
Outline: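 FLK-1-expressing NIH3T3 C7#3 cells, starved overnight in 0.1% FBS medium, were treated with compounds at a 1:200 final dilution (0.5% DMSO) for 2 h at 37 °C, with VEGF stimulation. FLK-1 kinase activity was read by ELISA on anti-rabbit IgG plates using affinity-purified anti-FLK-1 antiserum.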

PDGF-R = PDGF-R (Homo sapiens, UniProt P09619); test: PDGF-R ELISA; format: cell-based
PDGF-R, sequence (P09619 33-1106, species assumed): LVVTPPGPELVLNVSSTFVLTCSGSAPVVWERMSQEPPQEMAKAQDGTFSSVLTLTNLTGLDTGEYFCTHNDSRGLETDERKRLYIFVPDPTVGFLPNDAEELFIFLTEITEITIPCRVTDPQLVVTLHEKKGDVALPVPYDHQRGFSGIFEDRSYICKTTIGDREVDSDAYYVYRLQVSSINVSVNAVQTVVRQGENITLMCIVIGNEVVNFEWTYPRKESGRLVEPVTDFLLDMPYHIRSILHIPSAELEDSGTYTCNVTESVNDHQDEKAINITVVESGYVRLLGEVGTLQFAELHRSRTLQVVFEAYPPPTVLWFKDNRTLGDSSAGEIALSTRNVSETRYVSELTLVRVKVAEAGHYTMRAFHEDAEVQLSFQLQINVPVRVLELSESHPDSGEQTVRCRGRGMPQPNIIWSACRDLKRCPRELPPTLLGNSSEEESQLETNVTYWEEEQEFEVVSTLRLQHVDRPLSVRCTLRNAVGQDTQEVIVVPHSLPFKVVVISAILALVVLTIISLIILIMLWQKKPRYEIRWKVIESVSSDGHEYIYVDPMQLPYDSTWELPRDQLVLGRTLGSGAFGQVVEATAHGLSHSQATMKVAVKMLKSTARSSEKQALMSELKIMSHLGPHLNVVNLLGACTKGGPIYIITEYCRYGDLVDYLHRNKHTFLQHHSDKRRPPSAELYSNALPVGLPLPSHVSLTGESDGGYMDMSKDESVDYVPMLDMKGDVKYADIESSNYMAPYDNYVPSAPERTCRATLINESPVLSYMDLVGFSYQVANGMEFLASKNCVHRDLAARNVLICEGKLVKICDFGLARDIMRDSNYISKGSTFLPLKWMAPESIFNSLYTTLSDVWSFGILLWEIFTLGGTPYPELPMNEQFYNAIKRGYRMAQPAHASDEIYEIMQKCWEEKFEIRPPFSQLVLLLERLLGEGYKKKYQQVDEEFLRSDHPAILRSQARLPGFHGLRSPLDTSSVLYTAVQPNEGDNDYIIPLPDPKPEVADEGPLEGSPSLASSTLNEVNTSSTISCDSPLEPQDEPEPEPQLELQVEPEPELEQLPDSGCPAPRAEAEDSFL
From the text: A PDGF-R ELISA is described in International Patent Publication No. WO 96/40116, published December 19, 1996 by Tang et al.

MET = MET biochemical kinase assay; design: species or system human; concentration or dose not given beside the values
Outline: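 Human MET was captured from cell lysates onto ELISA plates via goat anti-rabbit Fc and rabbit polyclonal antibody to the MET cytoplasmic domain. After washing, test compounds and kinase buffer with ATP and divalent metal ions were added. Phosphotyrosine was detected with HRP-conjugated anti-phosphotyrosine antibody and TMB colorimetric read-out.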

SMILES	Fik Kinase %Inhibition (FLK-1 receptor) [%]	PDGF Kinase %Inhibition (PDGF-R) [%]	Met Kinase % Inhibition (MET) [%]
COc1cccc(C=C2C(=O)Nc3ccc(Br)c(C)c32)c1O [10723/C03]	-3.1	42.9	88.8
Cc1c(Br)ccc2c1C(=Cc1cc(O)c(O)c(Br)c1)C(=O)N2 [10723/C04]	8.8	36.7	91.9
CC(=O)Oc1ccc(C=C2C(=O)Nc3ccc(Br)c(C)c32)cc1OC(C)=O [10723/C05]	5.6	22.8	73.1
Cc1cc(C=C2C(=O)Nc3ccc(Br)c(C)c32)ccc1O [10723/C06]	17.8	26.3	63.4
Cc1c(Br)ccc2c1C(=Cc1ccccc1Br)C(=O)N2 [10723/C07]	20.9	27.6	44.3
Cc1c(Br)ccc2c1C(=Cc1ccc(O)cc1O)C(=O)N2 [10723/C08]	-35.5	29.0	83.0
COc1ccc(C=C2C(=O)Nc3ccc(Br)c(C)c32)c(O)c1 [10723/C09]	-22.3	62.3	84.6
Cc1c(Br)ccc2c1C(=Cc1cccc(Br)c1)C(=O)N2 [10723/C10]	9.5	25.6	43.8
Cc1c(Br)ccc2c1C(=Cc1cc(C(C)(C)C)cc(C(C)(C)C)c1O)C(=O)N2 [10723/C11]	9.5	8.9	47.0
CNS(=O)(=O)c1ccc2c(c1)C(=Cc1ccc(O)c(O)c1O)C(=O)N2 [10723/D02]	2.0	22.1	93.0
CNS(=O)(=O)c1ccc2c(c1)C(=Cc1cccc(OC)c1O)C(=O)N2 [10723/D03]	-14.7	8.2	69.4
CNS(=O)(=O)c1ccc2c(c1)C(=Cc1cc(O)c(O)c(Br)c1)C(=O)N2 [10723/D04]	15.2	31.8	97.7
CNS(=O)(=O)c1ccc2c(c1)C(=Cc1ccc(OC(C)=O)c(OC(C)=O)c1)C(=O)N2 [10723/D05]	-6.1	8.2	54.5
CNS(=O)(=O)c1ccc2c(c1)C(=Cc1ccc(O)c(C)c1)C(=O)N2 [10723/D06]	17.6	6.2	60.0
CNS(=O)(=O)c1ccc2c(c1)C(=Cc1ccccc1Br)C(=O)N2 [10723/D07]	15.8	16.6	21.9
CNS(=O)(=O)c1ccc2c(c1)C(=Cc1ccc(O)cc1O)C(=O)N2 [10723/D08]	-4.5	31.1	53.5
CNS(=O)(=O)c1ccc2c(c1)C(=Cc1ccc(OC)cc1O)C(=O)N2 [10723/D09]	50.4	21.4	62.6
CNS(=O)(=O)c1ccc2c(c1)C(=Cc1cccc(Br)c1)C(=O)N2 [10723/D10]	6.5	21.4	38.1
CNS(=O)(=O)c1ccc2c(c1)C(=Cc1cc(C(C)(C)C)cc(C(C)(C)C)c1O)C(=O)N2 [10723/D11]	14.8	24.9	42.0
O=C1Nc2ccc(S(=O)(=O)Nc3ccc(C(F)(F)F)cc3)cc2C1=Cc1ccc(O)c(O)c1O [10723/E02]	8.1	46.4	97.9
COc1cccc(C=C2C(=O)Nc3ccc(S(=O)(=O)Nc4ccc(C(F)(F)F)cc4)cc32)c1O [10723/E03]	8.7	47.1	76.8

SMILES	Fik Kinase %Inhibition (FLK-1 receptor) [%]	PDGF Kinase %Inhibition (PDGF-R) [%]	Met Kinase % Inhibition (MET) [%]
O=C1Nc2ccc(S(=O)(=O)Nc3ccc(C(F)(F)F)cc3)cc2C1=Cc1cc(O)c(O)c(Br)c1 [10723/E04]	30.7	36.0	94.5
CC(=O)Oc1ccc(C=C2C(=O)Nc3ccc(S(=O)(=O)Nc4ccc(C(F)(F)F)cc4)cc32)cc1OC(C)=O [10723/E05]	8.9	-4.9	63.7
Cc1cc(C=C2C(=O)Nc3ccc(S(=O)(=O)Nc4ccc(C(F)(F)F)cc4)cc32)ccc1O [10723/E06]	19.3	18.6	74.4
O=C1Nc2ccc(S(=O)(=O)Nc3ccc(C(F)(F)F)cc3)cc2C1=Cc1ccccc1Br [10723/E07]	17.4	14.5	47.7
O=C1Nc2ccc(S(=O)(=O)Nc3ccc(C(F)(F)F)cc3)cc2C1=Cc1ccc(O)cc1O [10723/E08]	-0.4	26.3	89.3
COc1ccc(C=C2C(=O)Nc3ccc(S(=O)(=O)Nc4ccc(C(F)(F)F)cc4)cc32)c(O)c1 [10723/E09]	7.9	22.1	91.7
O=C1Nc2ccc(S(=O)(=O)Nc3ccc(C(F)(F)F)cc3)cc2C1=Cc1cccc(Br)c1 [10723/E10]	5.2	44.3	59.5
CC(C)(C)c1cc(C=C2C(=O)Nc3ccc(S(=O)(=O)Nc4ccc(C(F)(F)F)cc4)cc32)c(O)c(C(C)(C)C)c1 [10723/E11]	8.9	32.5	50.1
O=C1Nc2ccc(S(=O)(=O)N3CCOCC3)cc2C1=Cc1ccc(O)c(O)c1O [10723/F02]	10.3	1.3	99.0
COc1cccc(C=C2C(=O)Nc3ccc(S(=O)(=O)N4CCOCC4)cc32)c1O [10723/F03]	4.4	1.3	78.3
O=C1Nc2ccc(S(=O)(=O)N3CCOCC3)cc2C1=Cc1cc(O)c(O)c(Br)c1 [10723/F04]	12.3	21.4	94.0
CC(=O)Oc1ccc(C=C2C(=O)Nc3ccc(S(=O)(=O)N4CCOCC4)cc32)cc1OC(C)=O [10723/F05]	-6.4	-7.7	45.6
O=C1Nc2ccc(CCCl)cc2C1=Cc1ccc(O)c(O)c1O [10723/G02]	-1.6	13.8	99.2
COc1cccc(C=C2C(=O)Nc3ccc(CCCl)cc32)c1O [10723/G03]	4.3	6.2	74.7
O=C1Nc2ccc(CCCl)cc2C1=Cc1cc(O)c(O)c(Br)c1 [10723/G04]	8.7	21.4	85.9
CC(=O)Oc1ccc(C=C2C(=O)Nc3ccc(CCCl)cc32)cc1OC(C)=O [10723/G05]	-9.4	2.0	79.9
Cc1cc(C=C2C(=O)Nc3ccc(CCCl)cc32)ccc1O [10723/G06]	14.1	-0.8	64.5
O=C1Nc2ccc(CCCl)cc2C1=Cc1ccccc1Br [10723/G07]	14.2	-5.6	43.0
O=C1Nc2ccc(CCCl)cc2C1=Cc1ccc(O)cc1O [10723/G08]	-22.9	7.5	79.9
COc1ccc(C=C2C(=O)Nc3ccc(CCCl)cc32)c(O)c1 [10723/G09]	-1.8	-2.9	80.7
